# Laboratory results from ChEMBL document CHEMBL4390667, “Novel tacrine-tryptophan hybrids: Multi-target directed ligands as potential treatment for Alzheimer's disease” (Eur J Med Chem, 2019).
# The source made the active and inactive calls. The rule behind the calls is not given here.
# Tests used:
# [1] = biological target: Nitric oxide synthase 1 (Rattus norvegicus, UniProt P29476)
# Description: Inhibition of nNOS in Wistar rat cortical homogenates incubated for 30 mins
# [2] = test system: CHO-K1; test: cells; conditions: Cricetulus griseus, CHO-K1, 24 h
# Description: Cytotoxicity against CHOK1 cells assessed as reduction in cell viability incubated for 24 hrs by MTT assay
# [3] = biological target: Acetylcholinesterase (Homo sapiens, UniProt P22303)
# Chain of Acetylcholinesterase (Homo sapiens, UniProt P22303) (P22303 whole entry): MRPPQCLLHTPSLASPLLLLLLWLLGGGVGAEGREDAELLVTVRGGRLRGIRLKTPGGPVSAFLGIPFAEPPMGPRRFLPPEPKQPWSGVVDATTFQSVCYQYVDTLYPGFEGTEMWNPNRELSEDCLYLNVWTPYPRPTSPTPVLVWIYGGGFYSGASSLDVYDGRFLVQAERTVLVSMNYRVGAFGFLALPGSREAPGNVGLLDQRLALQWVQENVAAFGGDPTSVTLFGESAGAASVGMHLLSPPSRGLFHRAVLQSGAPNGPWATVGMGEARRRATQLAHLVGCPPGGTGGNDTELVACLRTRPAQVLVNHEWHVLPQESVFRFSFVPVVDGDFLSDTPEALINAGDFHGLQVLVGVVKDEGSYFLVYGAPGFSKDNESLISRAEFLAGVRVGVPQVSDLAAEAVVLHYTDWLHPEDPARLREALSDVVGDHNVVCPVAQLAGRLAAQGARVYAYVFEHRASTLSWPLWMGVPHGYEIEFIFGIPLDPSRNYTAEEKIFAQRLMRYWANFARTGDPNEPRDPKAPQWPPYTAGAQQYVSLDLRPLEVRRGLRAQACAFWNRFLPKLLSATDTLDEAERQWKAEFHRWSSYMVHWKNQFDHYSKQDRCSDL
# Description: Inhibition of human recombinant AChE using acetylthiocholine iodide as substrate preincubated for 5 mins followed by substrate addition and measured over 2 mins by UV-Vis spectrophotometric analysis based Ellman's method
# [4] = pampa, pH 7.4, 100 µM
# Description: Effective permeability of the compound in PBS buffer at pH 7.4 at 100 uM after 3 to 6 hrs by PAMPA
# [5] = biological target: Cholinesterase (Homo sapiens, UniProt P06276)
# Chain of Cholinesterase (P06276 whole entry): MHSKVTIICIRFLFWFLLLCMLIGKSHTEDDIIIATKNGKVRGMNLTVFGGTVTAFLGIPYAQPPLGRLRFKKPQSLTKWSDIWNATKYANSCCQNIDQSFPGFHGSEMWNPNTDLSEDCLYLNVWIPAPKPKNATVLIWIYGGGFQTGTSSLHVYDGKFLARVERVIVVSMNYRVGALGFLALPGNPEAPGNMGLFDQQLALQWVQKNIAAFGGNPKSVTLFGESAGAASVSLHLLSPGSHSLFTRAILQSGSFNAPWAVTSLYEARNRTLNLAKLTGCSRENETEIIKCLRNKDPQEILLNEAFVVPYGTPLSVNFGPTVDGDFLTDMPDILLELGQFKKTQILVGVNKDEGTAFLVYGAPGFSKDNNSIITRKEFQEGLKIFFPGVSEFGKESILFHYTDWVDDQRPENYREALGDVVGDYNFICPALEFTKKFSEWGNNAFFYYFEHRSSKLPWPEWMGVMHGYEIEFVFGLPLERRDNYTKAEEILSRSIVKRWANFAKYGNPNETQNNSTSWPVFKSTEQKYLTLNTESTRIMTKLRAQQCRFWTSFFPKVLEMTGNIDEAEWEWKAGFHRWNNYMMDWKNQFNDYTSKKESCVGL
# Description: Inhibition of human recombinant BChE using butyrylthiocholine iodide as substrate preincubated for 5 mins followed by substrate addition and measured over 2 mins by UV-Vis spectrophotometric analysis based Ellman's method
# [6] = test system: HepG2; test: cells; conditions: Homo sapiens, HepG2, 24 h
# Description: Cytotoxicity against human HepG2 cells assessed as reduction in cell viability incubated for 24 hrs by MTT assay
# [7] = Toxicity in Wistar rat assessed as effect on time spent in the target sector at 100 nM, icv by Morris water maze assay; conditions: in vivo, icv_or_intrathecal, 0.1 µM
# [8] = test system: Rattus norvegicus; test: Antialzhemeric activity in Wistar rat model of scopolamine-induced cognition deficit assessed as effect on average distance from platform at 100 nM, icv dosed 60 mins prior to training trial by Morris water maze test; type: functional, organism-based
# [9] = Toxicity in Wistar rat assessed as induction of persistent oculonasal discharge at 70 mg/kg, ip measured during first 2 hrs then periodically for 48 hrs; type: organism-based; conditions: in vivo
# [10] = test system: Rattus norvegicus; test: Antialzhemeric activity in icv dosed Wistar rat model of scopolamine-induced cognition deficit assessed as effect on time in target sector dosed 60 mins prior to training trial by Morris water maze test; type: functional, organism-based
# [11] = test system: Rattus norvegicus; test: Antialzhemeric activity in Wistar rat model of scopolamine-induced cognition deficit assessed as effect on escape latency at 10 nM, icv dosed 60 mins prior to training trial by Morris water maze test; type: functional, organism-based
# [12] = Toxicity in Wistar rat assessed as effect on escape latency at 100 nM, icv by Morris water maze assay; conditions: in vivo, icv_or_intrathecal, 0.1 µM
# [13] = Toxicity in Wistar rat assessed as induction of diminishing spontaneously and prostration at 70 mg/kg, ip measured during first 2 hrs; type: organism-based; conditions: in vivo
# [14] = Toxicity in Wistar rat assessed as change in body weight weight at 70 mg/kg, ip after 24 and 48 hrs; type: organism-based; conditions: in vivo
# [15] = test system: Rattus norvegicus; test: Antialzhemeric activity in Wistar rat model of scopolamine-induced cognition deficit assessed as effect on time in target sector at 100 nM, icv dosed 60 mins prior to training trial by Morris water maze test; type: functional, organism-based
# [16] = Toxicity in Wistar rat assessed as induction of intermittent abnormal breathing pattern at 70 mg/kg, ip measured during first 2 hrs then periodically for 48 hrs; type: organism-based; conditions: in vivo
# [17] = Toxicity in ip dosed Wistar rat assessed as maximum tolerated dose measured during first 2 hrs then periodically for 48 hrs; type: organism-based; conditions: in vivo
# [18] = Toxicity in Wistar rat assessed as induction of partial piloerection at 70 mg/kg, ip measured during first 2 hrs then periodically for 48 hrs; type: organism-based; conditions: in vivo
# [19] = test system: Rattus norvegicus; test: Antialzhemeric activity in icv dosed Wistar rat model of scopolamine-induced cognition deficit assessed as effect on distance moved dosed 60 mins prior to training trial by Morris water maze test; type: functional, organism-based
# [20] = test system: Rattus norvegicus; test: Antialzhemeric activity in Wistar rat model of scopolamine-induced cognition deficit assessed as effect on escape latency at 100 nM, icv dosed 60 mins prior to training trial by Morris water maze test; type: functional, organism-based
# [21] = Toxicity in Wistar rat assessed as induction of salivation at 100 nM, icv by Morris water maze assay; conditions: in vivo, icv_or_intrathecal, 0.1 µM
# [22] = test system: Rattus norvegicus; test: Antialzhemeric activity in Wistar rat model of scopolamine-induced cognition deficit assessed as effect on time in target sector at 10 nM, icv dosed 60 mins prior to training trial by Morris water maze test; type: functional, organism-based
# [23] = test system: Rattus norvegicus; test: Antialzhemeric activity in Wistar rat model of scopolamine-induced cognition deficit assessed as effect on distance moved at 100 nM, icv dosed 60 mins prior to training trial by Morris water maze test; type: functional, organism-based
# [24] = biological target: Acetylcholinesterase (Electrophorus electricus, UniProt O42275); test: Displacement of propidium iodide from peripheral binding site of electric eel AChE assessed as dissociation constant at 8 to 56 uM by spectrofluorometry based Taylor and Lappi method
# Chain of Acetylcholinesterase (Electrophorus electricus, UniProt O42275) (O42275 whole entry): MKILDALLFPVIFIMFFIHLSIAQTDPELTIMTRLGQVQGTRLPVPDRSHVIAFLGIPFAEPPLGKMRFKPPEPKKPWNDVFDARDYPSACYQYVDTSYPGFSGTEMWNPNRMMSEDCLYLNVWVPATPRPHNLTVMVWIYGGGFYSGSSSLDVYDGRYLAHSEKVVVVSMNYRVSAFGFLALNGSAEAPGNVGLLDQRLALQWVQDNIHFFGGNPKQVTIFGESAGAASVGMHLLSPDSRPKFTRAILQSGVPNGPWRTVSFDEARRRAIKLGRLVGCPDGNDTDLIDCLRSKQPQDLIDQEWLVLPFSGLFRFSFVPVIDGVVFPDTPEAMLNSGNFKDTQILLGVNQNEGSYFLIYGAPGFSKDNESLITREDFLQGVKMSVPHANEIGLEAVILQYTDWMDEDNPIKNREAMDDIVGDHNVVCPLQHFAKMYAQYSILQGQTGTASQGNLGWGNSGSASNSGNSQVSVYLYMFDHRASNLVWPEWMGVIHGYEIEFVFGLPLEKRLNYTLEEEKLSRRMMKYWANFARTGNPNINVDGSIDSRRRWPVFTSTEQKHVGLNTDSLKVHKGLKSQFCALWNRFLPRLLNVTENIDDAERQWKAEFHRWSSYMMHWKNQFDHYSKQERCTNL
# [25] = Toxicity in Wistar rat assessed as induction of intermittent tremors and prostration at 70 mg/kg, ip measured during first 2 hrs then periodically for 48 hrs; type: organism-based; conditions: in vivo
# [26] = test system: Rattus norvegicus; test: Antialzhemeric activity in Wistar rat model of scopolamine-induced cognition deficit assessed as effect on distance moved at 10 nM, icv dosed 60 mins prior to training trial by Morris water maze test; type: functional, organism-based
# [27] = Toxicity in Wistar rat assessed as induction of tremors at 100 nM, icv by Morris water maze assay; conditions: in vivo, icv_or_intrathecal, 0.1 µM
# [28] = test system: Rattus norvegicus; test: Antialzhemeric activity in icv dosed Wistar rat model of scopolamine-induced cognition deficit assessed as effect on escape latency dosed 60 mins prior to training trial by Morris water maze test; type: functional, organism-based
# [29] = test system: Rattus norvegicus; test: Antialzhemeric activity in Wistar rat model of scopolamine-induced cognition deficit assessed as effect on average distance from platform at 10 nM, icv dosed 60 mins prior to training trial by Morris water maze test; type: functional, organism-based
# [30] = Toxicity in Wistar rat assessed as effect on distance moved at 100 nM, icv by Morris water maze assay; conditions: in vivo, icv_or_intrathecal, 0.1 µM
# [31] = Toxicity in Wistar rat assessed as effect on average distance from platform at 100 nM, icv by Morris water maze assay; conditions: in vivo, icv_or_intrathecal, 0.1 µM
# [32] = test system: Rattus norvegicus; test: Antialzhemeric activity in icv dosed Wistar rat model of scopolamine-induced cognition deficit assessed as effect on average distance from platform dosed 60 mins prior to training trial by Morris water maze test; type: functional, organism-based
# Chain of Nitric oxide synthase 1 (P29476 whole entry, looked up): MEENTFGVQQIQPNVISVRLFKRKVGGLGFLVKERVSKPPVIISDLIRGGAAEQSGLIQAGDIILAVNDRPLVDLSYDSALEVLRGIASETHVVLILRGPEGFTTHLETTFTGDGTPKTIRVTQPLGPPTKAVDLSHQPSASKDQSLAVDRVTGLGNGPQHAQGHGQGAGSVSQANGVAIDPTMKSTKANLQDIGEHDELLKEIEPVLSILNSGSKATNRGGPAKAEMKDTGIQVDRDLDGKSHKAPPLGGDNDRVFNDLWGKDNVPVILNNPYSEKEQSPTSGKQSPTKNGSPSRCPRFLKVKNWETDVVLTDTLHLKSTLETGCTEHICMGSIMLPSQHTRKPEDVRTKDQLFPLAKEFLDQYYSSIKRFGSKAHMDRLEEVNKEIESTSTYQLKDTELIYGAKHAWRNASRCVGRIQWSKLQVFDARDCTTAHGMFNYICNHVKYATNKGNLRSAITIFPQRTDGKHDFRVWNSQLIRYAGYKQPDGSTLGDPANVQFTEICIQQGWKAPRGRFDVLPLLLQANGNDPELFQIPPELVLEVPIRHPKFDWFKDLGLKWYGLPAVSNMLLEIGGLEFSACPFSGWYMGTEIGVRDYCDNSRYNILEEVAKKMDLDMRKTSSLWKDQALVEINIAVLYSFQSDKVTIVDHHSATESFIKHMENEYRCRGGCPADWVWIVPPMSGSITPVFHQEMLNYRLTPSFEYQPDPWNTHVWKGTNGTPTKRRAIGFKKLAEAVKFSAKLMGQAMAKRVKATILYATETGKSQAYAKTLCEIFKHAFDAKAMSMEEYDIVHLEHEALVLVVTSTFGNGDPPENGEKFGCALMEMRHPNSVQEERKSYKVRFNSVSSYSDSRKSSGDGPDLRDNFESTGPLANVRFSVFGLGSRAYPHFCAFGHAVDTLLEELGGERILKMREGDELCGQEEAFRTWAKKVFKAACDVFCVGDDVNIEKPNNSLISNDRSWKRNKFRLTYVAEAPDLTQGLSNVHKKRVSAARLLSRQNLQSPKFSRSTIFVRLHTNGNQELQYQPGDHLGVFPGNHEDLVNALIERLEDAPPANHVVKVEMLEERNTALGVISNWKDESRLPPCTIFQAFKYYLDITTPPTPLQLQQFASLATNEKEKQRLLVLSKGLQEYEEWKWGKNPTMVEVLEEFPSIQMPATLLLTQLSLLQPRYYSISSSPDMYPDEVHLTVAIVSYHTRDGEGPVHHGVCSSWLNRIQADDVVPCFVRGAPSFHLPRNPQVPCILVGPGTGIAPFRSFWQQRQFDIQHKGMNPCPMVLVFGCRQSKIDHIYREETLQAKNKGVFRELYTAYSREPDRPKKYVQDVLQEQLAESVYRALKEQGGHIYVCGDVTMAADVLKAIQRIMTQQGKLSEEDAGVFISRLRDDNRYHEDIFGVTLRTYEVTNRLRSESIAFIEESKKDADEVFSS
compound,measurement,setting,value
CNC(=N)NCCC[C@H](N)C(=O)OC,IC50,[1],4.1 µM
Cl.Cl.N[C@@H](Cc1c[nH]c2ccccc12)C(=O)NCCNc1c2c(nc3ccccc13)CCCC2,IC50,[1],33 µM
same,IC50,[2],200 µM
same,IC50,[3],730 nM
same,permeability,[4],Impermeable
same,IC50,[5],0.056 µM
Cl.Cl.N[C@@H](Cc1c[nH]c2ccccc12)C(=O)NCCCCCCCNc1c2c(nc3ccccc13)CCCC2,IC50,[1],32 µM
same,IC50,[2],248 µM
same,IC50,[3],120 nM
same,permeability,[4],Impermeable
same,IC50,[5],0.025 µM
Cl.Cl.N[C@@H](Cc1c[nH]c2ccccc12)C(=O)NCCCCCNc1c2c(nc3ccccc13)CCCC2,IC50,[1],26 µM
same,IC50,[2],83 µM
same,IC50,[3],320 nM
same,permeability,[4],Impermeable
same,IC50,[5],0.023 µM
COc1ccc2nc3c(c(NCCCCCCCNC(=O)[C@@H](N)Cc4c[nH]c5ccccc45)c2c1)CCCC3,IC50,[6],5.6 µM
same,IC50,[1],26 µM
same,IC50,[2],14 µM
same,IC50,[3],980 nM
same,IC50,[5],0.078 µM
COc1ccc2nc3c(c(NCCCCCCCCNC(=O)[C@@H](N)Cc4c[nH]c5ccccc45)c2c1)CCCC3,IC50,[1],45 µM
same,IC50,[2],43 µM
same,IC50,[3],1300 nM
same,IC50,[5],0.13 µM
N[C@@H](Cc1c[nH]c2ccccc12)C(=O)NCCCNc1c2c(nc3cc(Cl)ccc13)CCCC2,IC50,[1],31 µM
same,IC50,[2],29 µM
same,IC50,[3],70 nM
same,IC50,[5],0.14 µM
Cl.Cl.N[C@H](Cc1c[nH]c2ccccc12)C(=O)NCCCCCCNc1c2c(nc3cc(Cl)ccc13)CCCC2,IC50,[6],4.2 µM
same,IC50,[1],26 µM
same,IC50,[2],15 µM
same,IC50,[3],6.9 nM
same,permeability,[4],Permeable
same,IC50,[5],0.14 µM
O=C(CCCCCNc1c2c(nc3cc(Cl)ccc13)CCCC2)NCCc1cc2ccccc2[nH]1,IC50,[3],0.73 nM
same,permeability,[4],Permeable
same,IC50,[5],0.18 µM
Cl.Cl.N[C@@H](Cc1c[nH]c2ccccc12)C(=O)NCCCCCCNc1c2c(nc3ccccc13)CCCC2,IC50,[6],26 µM
same,IC50,[1],33 µM
same,IC50,[2],90 µM
same,IC50,[3],120 nM
same,permeability,[4],Impermeable
same,IC50,[5],0.0039 µM
N[C@@H](Cc1c[nH]c2ccccc12)C(=O)NCCNc1c2c(nc3cc(Cl)ccc13)CCCC2,IC50,[1],39 µM
same,IC50,[2],26 µM
same,IC50,[3],160 nM
same,IC50,[5],0.34 µM
N[C@@H](Cc1c[nH]c2ccccc12)C(=O)O [TRYPTOPHAN],IC50,[6],17000 µM
COc1ccc2nc3c(c(NCCNC(=O)[C@@H](N)Cc4c[nH]c5ccccc45)c2c1)CCCC3.Cl.Cl,IC50,[1],19 µM
same,IC50,[2],131 µM
same,IC50,[3],5700 nM
same,permeability,[4],Impermeable
same,IC50,[5],0.48 µM
N[C@@H](Cc1c[nH]c2ccccc12)C(=O)NCCCCCCCCNc1c2c(nc3ccccc13)CCCC2,IC50,[6],9.3 µM
same,IC50,[1],37 µM
same,IC50,[2],47 µM
same,IC50,[3],76 nM
same,IC50,[5],0.064 µM
COc1ccc2nc3c(c(NCCCCCCNC(=O)[C@@H](N)Cc4c[nH]c5ccccc45)c2c1)CCCC3,IC50,[6],16 µM
same,IC50,[1],27 µM
same,IC50,[2],23 µM
same,IC50,[3],940 nM
same,IC50,[5],0.055 µM
COc1ccc2nc3c(c(NCCCNC(=O)[C@@H](N)Cc4c[nH]c5ccccc45)c2c1)CCCC3.Cl.Cl,IC50,[1],30 µM
same,IC50,[2],95 µM
same,IC50,[3],1300 nM
same,permeability,[4],Impermeable
same,IC50,[5],1.8 µM
Cl.Cl.NC(Cc1c[nH]c2ccccc12)C(=O)NCCCCCCNc1c2c(nc3cc(Cl)ccc13)CCCC2 (racemic),IC50,[6],5.1 µM
same,IC50,[1],33 µM
same,IC50,[2],21 µM
same,IC50,[3],7.4 nM
same,permeability,[4],Permeable
same,IC50,[5],0.013 µM
Cl.Cl.N[C@@H](Cc1c[nH]c2ccccc12)C(=O)NCCCCNc1c2c(nc3ccccc13)CCCC2,IC50,[1],18 µM
same,IC50,[2],34 µM
same,IC50,[3],1300 nM
same,permeability,[4],Permeable
same,IC50,[5],0.123 µM
Cl.Cl.N[C@@H](Cc1c[nH]c2ccccc12)C(=O)NCCCNc1c2c(nc3ccccc13)CCCC2,IC50,[1],32 µM
same,IC50,[2],116 µM
same,IC50,[3],580 nM
same,permeability,[4],Impermeable
same,IC50,[5],0.04 µM
Cl.Cl.N[C@@H](Cc1c[nH]c2ccccc12)C(=O)NCCCCCCNc1c2c(nc3cc(Cl)ccc13)CCCC2,Activity,[7],Non-Toxic
same,Activity,[8],Active
same,Activity,[9],Toxic
same,Activity,[10],Dose-dependent effect
same,Activity,[11],Active
same,Activity,[12],Non-Toxic
same,Activity,[13],Toxic
same,Activity,[14],Non-Toxic
same,IC50,[6],4.9 µM
same,Activity,[15],Active
same,Activity,[16],Toxic
same,MTD at 48 h,[17],70 mg/kg
same,Activity,[18],Toxic
same,Activity,[19],Dose-dependent effect
same,Activity,[20],Active
same,IC50,[1],26 µM
same,IC50,[2],21 µM
same,Activity,[21],Non-Toxic
same,IC50,[3],6.3 nM
same,Activity,[22],Active
same,Activity,[23],Active
same,Kd,[24],4.82 µM
same,Activity,[25],Toxic
same,Activity,[26],inactive
same,Activity,[27],Non-Toxic
same,Activity,[28],Dose-dependent effect
same,Activity,[29],Active
same,Activity,[30],Non-Toxic
same,permeability,[4],Permeable
same,IC50,[5],0.0091 µM
same,Activity,[31],Non-Toxic
same,Activity,[32],Dose-dependent effect
N[C@@H](Cc1c[nH]c2ccccc12)C(=O)NCCCCCNc1c2c(nc3cc(Cl)ccc13)CCCC2,IC50,[1],27 µM
same,IC50,[2],21 µM
same,IC50,[3],76 nM
same,IC50,[5],0.074 µM
Nc1c2c(nc3cc(Cl)ccc13)CCCC2,IC50,[6],71 µM
same,IC50,[2],71 µM
same,permeability,[4],Permeable
Cl.Cl.N[C@@H](Cc1c[nH]c2ccccc12)C(=O)NCCCCCCCNc1c2c(nc3cc(Cl)ccc13)CCCC2,IC50,[6],6 µM
same,IC50,[1],27 µM
same,IC50,[2],24 µM
same,IC50,[3],19 nM
same,permeability,[4],Permeable
same,IC50,[5],0.052 µM
Cl.Cl.N[C@@H](Cc1c[nH]c2ccccc12)C(=O)NCCCCCCCCNc1c2c(nc3cc(Cl)ccc13)CCCC2,IC50,[1],43 µM
same,IC50,[2],65 µM
same,IC50,[3],50 nM
same,permeability,[4],Permeable
same,IC50,[5],0.14 µM
O=C(CCCCCCNc1c2c(nc3cccc(Cl)c13)CCCC2)NCCc1c[nH]c2ccccc12,IC50,[3],0.008 nM
same,IC50,[5],0.0078 µM
COc1ccc2nc3c(c(N)c2c1)CCCC3,IC50,[6],120 µM
same,IC50,[2],63 µM
same,permeability,[4],Permeable
COc1ccc2nc3c(c(NCCCCNC(=O)[C@@H](N)Cc4c[nH]c5ccccc45)c2c1)CCCC3.Cl.Cl,IC50,[1],27 µM
same,IC50,[2],73 µM
same,IC50,[3],12000 nM
same,permeability,[4],Impermeable
same,IC50,[5],0.52 µM
c1ccc2c(NCCCCCCCNc3c4c(nc5ccccc35)CCCC4)c3c(nc2c1)CCCC3,IC50,[1],2.9 µM
N[C@@H](Cc1c[nH]c2ccccc12)C(=O)NCCCCNc1c2c(nc3cc(Cl)ccc13)CCCC2,IC50,[1],26 µM
same,IC50,[2],16 µM
same,IC50,[3],62 nM
same,IC50,[5],0.12 µM
COc1ccc2nc3c(c(NCCCCCNC(=O)[C@@H](N)Cc4c[nH]c5ccccc45)c2c1)CCCC3.Cl.Cl,IC50,[1],26 µM
same,IC50,[2],46 µM
same,IC50,[3],620 nM
same,permeability,[4],Impermeable
same,IC50,[5],0.19 µM
